Test results: patent US8394630B2, “Producing a mammalian pluripotent cell population from mammalian blastomere-like stem cells (BLSCs)” (StemBios Technologies, Inc., priority 2009, dated 2013)

Tested on: BLSCs
Test: Culturing BLSCs in medium containing RA or TGF-β to produce SBR and SBT cells
Assay type: cell-based, human
Details: StemBios-003 medium, 0.1 to 20 μM RA or 1 to 40 nM TGF-β, over 2-6 weeks
Protocol: The method for activation, purification, and expansion of BLSCs has been described in WO/2007/100845. In this example, BLSCs were purified from blood of a human subject using two methods. The isolated cells were analyzed by flow cytometry.
The purified BLSCs were cultured in StemBios-001. To produce SBR and SBT cells, BLSCs were cultured in a StemBios-002 medium for 2 weeks. Then, the BLSCs were cultured in a StemBios-003 medium containing 0.1 to 20 μM of RA or 1 to 40 nM of TGF-β for over 2˜6 weeks. […] These cells were named SBR and SBT cells respectively.

TGF-β was tested. Which “change of morphology and sizes of cultured BLSCs” value did it give?
Its value is “gradually changed their morphology and sizes”.
